Paper PMC5650337, “A peptidomimetic with a chiral switch is an inhibitor of epidermal growth factor receptor heterodimerization” (Oncotarget, 2017)
Where a SMILES comes first, the peptide text is derived from it.

Assays:
SKOV-3 cells = conditions: read-out: IC50 SKOV-3(+); HER2-overexpressing ovarian cancer cells, 72 h
Experimental: (§5) Cellular assays were performed using BT-474, SKBR-3, Calu-3, MCF-7, and MCF-10A cells (ATCC). Antiproliferative activity was measured by CellTiter-Glo®, [49] a luminescence-based cell viability assay. In a 96-well plate, 1 × 10^4 cells/well were seeded and incubated overnight at 37°C and 5% CO2. Stock solutions of peptidomimetics were prepared by dissolving 1.5 mg/mL of compounds in DMSO. Stock solution of the compounds were diluted using the serum-free medium to prepare solutions of different concentrations of compounds. Compounds in the medium were added to the wells in triplicate and incubated for 72 h. As controls, cells treated with 1% sodium dodecyl sulfate and 1% dimethyl sulfoxide were used. At the end of the experiment, CellTiter-Glo® reagent was added, and luminescence was measured by a plate reader. A dose response curve was generated using luminescence vs concentration of compounds and IC50 values were obtained using Prism® (GraphPad Software, La Jolla, CA). Experiments were repeated at least three times to obtain standard deviation values.

EGFR = target: T1, EGFR (Homo sapiens, UniProt P00533); assay: Surface plasmon resonance analysis; type: binding; conditions: data not shown
T1 construct: Extracellular domains of proteins HER2, EGFR, HER3, and HER4 purchased from Leinco Technologies; purchased Leinco Technologies (St. Louis, MO)
T1 sequence (P00533 25-645 limits assumed): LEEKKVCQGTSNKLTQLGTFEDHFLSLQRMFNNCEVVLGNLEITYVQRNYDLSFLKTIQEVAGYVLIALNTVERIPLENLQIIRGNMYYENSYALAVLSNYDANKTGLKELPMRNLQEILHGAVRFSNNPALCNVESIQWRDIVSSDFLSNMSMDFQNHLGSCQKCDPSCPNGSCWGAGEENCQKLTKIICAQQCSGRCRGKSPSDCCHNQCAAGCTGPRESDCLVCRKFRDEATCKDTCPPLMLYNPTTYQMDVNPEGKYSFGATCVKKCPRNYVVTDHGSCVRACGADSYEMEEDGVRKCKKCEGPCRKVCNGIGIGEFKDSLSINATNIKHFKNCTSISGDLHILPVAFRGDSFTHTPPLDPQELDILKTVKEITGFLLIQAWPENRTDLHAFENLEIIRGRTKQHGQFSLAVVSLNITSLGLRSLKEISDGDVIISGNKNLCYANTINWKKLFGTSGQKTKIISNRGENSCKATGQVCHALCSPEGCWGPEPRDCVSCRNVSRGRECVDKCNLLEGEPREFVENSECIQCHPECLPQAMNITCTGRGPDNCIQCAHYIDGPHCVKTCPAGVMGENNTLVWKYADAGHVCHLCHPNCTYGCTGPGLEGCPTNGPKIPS
Experimental: (§1) Surface plasmon resonance analysis was performed using GE X100. Extracellular domains of proteins HER2, EGFR, HER3, and HER4 purchased from Leinco Technologies (St. Louis, MO). […] Compound 18 and controls were used as analytes. Compound 18 at different concentrations (0 to 200 µM) was passed through an SPR chip, and binding kinetics were analyzed for each of the EGFR bindings. A blank subtracted sensorgram for compound 18 was represented.

[1] = target: T2, HER2 ECD (domains I to IV) (Homo sapiens, UniProt P04626); assay: Surface plasmon resonance analysis; type: binding
T2 construct: Extracellular domains of proteins HER2, EGFR, HER3, and HER4 purchased from Leinco Technologies; purchased Leinco Technologies (St. Louis, MO)
T2 sequence (P04626 23-652 limits assumed): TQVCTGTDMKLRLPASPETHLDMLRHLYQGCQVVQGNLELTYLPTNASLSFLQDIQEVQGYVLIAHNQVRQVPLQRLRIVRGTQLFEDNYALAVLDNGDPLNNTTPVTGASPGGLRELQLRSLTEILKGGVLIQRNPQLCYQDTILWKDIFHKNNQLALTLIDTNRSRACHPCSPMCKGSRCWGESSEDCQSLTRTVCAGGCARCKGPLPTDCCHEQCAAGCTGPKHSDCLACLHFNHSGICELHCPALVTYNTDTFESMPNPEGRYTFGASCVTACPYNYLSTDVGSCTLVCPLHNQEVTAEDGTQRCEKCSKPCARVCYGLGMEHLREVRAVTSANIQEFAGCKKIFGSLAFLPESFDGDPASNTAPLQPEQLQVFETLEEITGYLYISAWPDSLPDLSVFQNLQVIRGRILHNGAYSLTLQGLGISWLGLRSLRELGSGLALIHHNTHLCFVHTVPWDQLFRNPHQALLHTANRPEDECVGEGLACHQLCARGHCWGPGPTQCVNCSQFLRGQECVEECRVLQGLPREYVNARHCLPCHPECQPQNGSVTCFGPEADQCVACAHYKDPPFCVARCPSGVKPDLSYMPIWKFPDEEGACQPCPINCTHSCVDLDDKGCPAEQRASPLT
Experimental: as §1

HER4 = target: T3, HER4 (Homo sapiens, UniProt Q15303); assay: Surface plasmon resonance analysis; type: binding; conditions: data not shown
T3 construct: Extracellular domains of proteins HER2, EGFR, HER3, and HER4 purchased from Leinco Technologies; purchased Leinco Technologies (St. Louis, MO)
Experimental: as §1

HER3 = target: T4, HER3 (Homo sapiens, UniProt P21860); assay: Surface plasmon resonance analysis; type: binding; conditions: data not shown
T4 construct: Extracellular domains of proteins HER2, EGFR, HER3, and HER4 purchased from Leinco Technologies; purchased Leinco Technologies (St. Louis, MO)
T4 sequence (P21860 20-643 limits assumed): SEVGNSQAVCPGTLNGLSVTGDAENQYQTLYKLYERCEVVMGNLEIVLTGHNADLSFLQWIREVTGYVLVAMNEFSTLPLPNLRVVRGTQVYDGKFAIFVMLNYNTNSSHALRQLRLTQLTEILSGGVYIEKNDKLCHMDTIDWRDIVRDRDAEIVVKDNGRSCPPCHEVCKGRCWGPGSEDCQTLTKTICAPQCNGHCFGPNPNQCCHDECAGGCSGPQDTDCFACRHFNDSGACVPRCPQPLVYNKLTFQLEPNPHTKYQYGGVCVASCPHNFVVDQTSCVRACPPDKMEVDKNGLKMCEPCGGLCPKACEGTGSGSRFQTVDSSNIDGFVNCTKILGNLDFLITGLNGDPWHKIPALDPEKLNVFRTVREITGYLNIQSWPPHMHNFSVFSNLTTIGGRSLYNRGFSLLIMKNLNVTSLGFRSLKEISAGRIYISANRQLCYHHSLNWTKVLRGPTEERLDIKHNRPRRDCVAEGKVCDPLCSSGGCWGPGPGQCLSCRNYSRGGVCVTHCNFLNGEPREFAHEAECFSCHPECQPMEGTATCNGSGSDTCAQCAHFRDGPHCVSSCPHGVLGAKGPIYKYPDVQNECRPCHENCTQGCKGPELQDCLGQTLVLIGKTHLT
Experimental: as §1

domain IV of HER2 = domain IV of HER2 (Homo sapiens, UniProt P04626); assay: Surface plasmon resonance analysis; type: binding; conditions: protein immobilized on CM5 chip
domain IV of HER2, sequence (P04626 511-652 limits assumed): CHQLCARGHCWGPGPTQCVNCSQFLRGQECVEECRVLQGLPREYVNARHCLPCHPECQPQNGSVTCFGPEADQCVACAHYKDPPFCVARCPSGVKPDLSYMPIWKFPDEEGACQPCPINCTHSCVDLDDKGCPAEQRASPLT
Experimental: as §1

[2] = system: MCF-10A normal breast epithelial cell line; assay: Antiproliferative activity (CellTiter-Glo); type: cell-based
Source text: (§2) Erlotinib was from Sigma (Sigma-Aldrich Chemie GmbH).

MCF-7 cells = assay: Antiproliferative activity (CellTiter-Glo); type: cell-based
Source text: as §2

[3] = target: T5, HER2 protein on BT-474 cells (Homo sapiens, UniProt P04626); assay: Competitive binding assay with FITC-compound 5; conditions: 0.1 to 50 µM with 50 µM FITC-compound 5, BT-474 cells
T5 construct: incubated with HER2 expressing BT-474 cells lines along with fixed amount of FITC-compound 5; host or cells: BT-474
T5 sequence (P04626 23-1255): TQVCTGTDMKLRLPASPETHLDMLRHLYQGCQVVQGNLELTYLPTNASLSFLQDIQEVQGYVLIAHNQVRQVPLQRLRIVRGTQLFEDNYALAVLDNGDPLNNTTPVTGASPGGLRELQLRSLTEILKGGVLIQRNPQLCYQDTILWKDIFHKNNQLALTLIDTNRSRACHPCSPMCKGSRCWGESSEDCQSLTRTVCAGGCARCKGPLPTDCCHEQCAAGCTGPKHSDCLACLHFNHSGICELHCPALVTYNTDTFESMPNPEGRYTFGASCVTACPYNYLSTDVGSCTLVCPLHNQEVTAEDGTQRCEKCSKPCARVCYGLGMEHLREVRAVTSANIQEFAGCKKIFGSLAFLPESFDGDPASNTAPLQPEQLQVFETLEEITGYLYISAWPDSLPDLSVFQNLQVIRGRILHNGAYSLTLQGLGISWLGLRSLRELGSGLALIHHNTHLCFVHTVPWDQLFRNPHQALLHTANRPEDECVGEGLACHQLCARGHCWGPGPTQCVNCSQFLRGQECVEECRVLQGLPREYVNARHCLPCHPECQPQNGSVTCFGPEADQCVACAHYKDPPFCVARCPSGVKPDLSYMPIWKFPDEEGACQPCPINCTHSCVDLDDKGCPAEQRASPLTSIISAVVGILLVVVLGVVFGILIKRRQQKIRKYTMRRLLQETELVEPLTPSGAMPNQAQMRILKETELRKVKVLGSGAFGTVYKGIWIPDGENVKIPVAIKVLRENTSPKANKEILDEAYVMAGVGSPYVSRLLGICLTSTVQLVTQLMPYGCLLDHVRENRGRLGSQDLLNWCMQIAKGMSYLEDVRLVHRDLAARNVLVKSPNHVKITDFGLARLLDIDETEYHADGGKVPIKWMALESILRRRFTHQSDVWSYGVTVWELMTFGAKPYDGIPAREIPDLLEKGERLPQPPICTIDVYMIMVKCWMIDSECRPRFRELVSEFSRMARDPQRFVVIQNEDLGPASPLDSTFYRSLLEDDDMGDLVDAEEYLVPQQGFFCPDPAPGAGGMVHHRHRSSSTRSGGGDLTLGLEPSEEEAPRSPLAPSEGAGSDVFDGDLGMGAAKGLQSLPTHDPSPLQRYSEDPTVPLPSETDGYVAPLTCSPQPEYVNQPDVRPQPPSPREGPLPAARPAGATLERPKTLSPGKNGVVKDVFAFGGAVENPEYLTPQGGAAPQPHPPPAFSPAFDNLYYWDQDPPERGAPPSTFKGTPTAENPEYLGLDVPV
Experimental: BT-474 cell lines were coated on 96 well plates and after 24 hrs cells were washed. Varying amounts of compound 18 (0.1 to 50 µM) was incubated with HER2 expressing BT-474 cells lines along with fixed amount of FITC-compound 5 (50 µM). […] Readings were in triplicate. A graph of relative fluorescence with respect to concentration of compound 18 was plotted. As control fluorescence from FITC-compound 5 and cells without any treatment were used.

[4] = target: T6, HER2:HER3 heterodimerization in tumor sections (Homo sapiens, UniProt P04626); assay: PLA on xenograft tumor sections; type: in vivo, athymic nude mice
T6 construct: from tissue; host or cells: BT-474 xenograft tumours grown in athymic nude mice
Experimental: (§3) Western blot and PLA assay were carried out on tumor sections as described before. Immunoblot analysis was performed to evaluate the levels of total HER2 and phosphorylated HER2. Tumor sections were deparaffinized using xylene and rehydrated with decreasing concentrations of ethanol. Antigen retrieval on the microsections of the breast tumors was done in a steaming sodium citrate buffer (10 mM, 0.05% Tween-20, pH 6.0) for 5 min. The tumor sections were then used to analyze inhibition of HER2:HER3 dimerization using PLA.

[5] = target: T7, HER2:HER3 heterodimer in SKBR-3 cells (Homo sapiens, UniProt P04626); assay: Proximity ligation assay (PLA); type: cell-based; conditions: 0.5 and 1 µM
T7 construct: indicating HER2:HER3 dimerization in SKBR-3 cells; host or cells: SKBR-3
Experimental: (§4) Proximity ligation assay was performed as described previously. […] Fixed cells were used for PLA assay. Cells were incubated with primary antibodies for 24 h and washed, and secondary antibodies PLA+ and PLA− were added. After incubation and washing, PLA detection reagent was added, and the cells were covered with a glass plate after mounting medium was added. Slides were viewed using an inverted microscope and a multiphoton microscope. Images were obtained at 40 and 60X.

[6] = target: T8, EGFR:HER2 heterodimer in SKBR-3 cells (Homo sapiens, UniProt P04626); assay: Proximity ligation assay (PLA); type: cell-based; conditions: 0.5 and 1 µM
T8 construct: we probed for HER2:EGFR dimers with PLA probes in SKBR-3 cells; host or cells: SKBR-3
T8 sequence (P04626 23-1255, one chain of several): as the sequence (P04626 23-1255) above
Experimental: as §4

BT-474 breast tumors = assay: Xenograft model of breast cancer; type: in vivo, athymic nude mice; conditions: BT-474 xenograft, 19 days; 18 and 9 4 mg/kg twice a week intratumor; lapatinib 10 mg/kg once a week i.p.
Experimental: All animals were handled according to the approved protocol from IACUC at the University of Louisiana at Monroe. Athymic nude mice (Foxn1nu/Foxn1+, female, 4–5 weeks) were purchased from Harlan Laboratories (Indianapolis, IN) and maintained in the ULM School of Pharmacy vivarium. After acclimatization of animals to the local environment, estrogen (17β-estradiol) pellets (0.72 mg, 90-day release) were implanted subcutaneously in the mice, under anesthesia. Tumors were induced in mice as described previously. Orthotopic injection of about three-million BT-474 cells suspended in the serum-free RPMI-1640 medium was done at the second left mammary fat pad. Mice were observed every day for tumor formation, and the tumor diameter was measured with calipers, and the tumor volume was calculated. When a tumor diameter of 3 mm was achieved, mice were randomly assigned to four groups of six. These groups contain negative control (vehicle control), positive control (lapatinib), and two treatment groups (compound 9 and 18). The mice were treated for 19 days. Compound 18 was administered near the base of the tumor at a dose of 4 mg/kg twice a week. Control groups received intratumor saline injections twice a week, and lapatinib was administered at 10 mg/kg once a week by intraperitoneal injection. The marker to end the experiments was based on tumor doubling time rather than tumor volume. Since tumor doubling time was 4 times in 19 days, experiments were stopped on the 19th day. Tumor-bearing mice were sacrificed, and three tumors per group were harvested and maintained at –80°C and the remaining three tumors were fixed in paraffin blocks. Microsections (5 µm) of paraffin fixed tumors were stained with hemotoxylin and eosin (H&E) and observed for necrosis by a pathologist. All data are presented as the mean ± SE. Statistical differences were evaluated by Mann-Whitney U test as well as one-way ANOVA analysis of data from different groups, and the criterion for statistical significance was p < 0.05.

[7] = system: HER2 phosphorylation in tumor samples; assay: Western blot of xenograft tumor samples; type: in vivo, athymic nude mice; conditions: treated tumors compared to control
Experimental: as §3

Calu-3 cells = conditions: read-out: IC50 Calu-3 (+); HER2-overexpressing lung cancer cells, 72 h
Experimental: as §5

## N=C(N)NCCC[C@@H]1NC(=O)[C@H]2CCCN2C(=O)[C@@H]2CCCN2C(=O)[C@H](CCCNC(=N)N)NC(=O)C[C@H](c2cccc3ccccc23)NC(=O)[C@H](Cc2ccccc2)NC(=O)[C@H](CC(=O)O)NC(=O)[C@H](CC(=O)O)NC(=O)[C@H](Cc2ccccc2)NC(=O)C[C@H](c2cccc3ccccc23)NC1=O [compound 18, Cyclo(1,10)P^1p^2R^3(R-Anapa)^4F^5D^6D^7F^8(R-Anapa)^9R^10] (HELM PEPTIDE1{P.[dP].R.[O=C(C[C@@H](N[*:1])c1cccc2ccccc12)[*:2]].F.D.D.F.[O=C(C[C@@H](N[*:1])c1cccc2ccccc12)[*:2]].R}$PEPTIDE1,PEPTIDE1,1:R1-10:R2$$$V2.0)
SKOV-3 cells
  IC50: 853 ± 102 nM
EGFR
  SPR binding to EGFR: did not indicate any significant change in response
[1]; SPR, 1:1 binding Langmuir fit
  koff: 5.97 s⁻¹
  kon: 4.76e+07 M⁻¹ s⁻¹
[1]; calculated from kon and koff
  Kd: 125 nM
[1]; protein immobilized on CM5 chip, substance as analyte
  SPR binding to HER2 ECD: concentration-dependent binding
HER4
  SPR binding to HER4: did not indicate any significant change in response
HER3
  SPR binding to HER3: did not indicate any significant change in response
Domain IV of HER2
  SPR binding to HER2 domain IV: concentration-dependent binding
[2]; IC50 MCF-10A vs Calu-3
  Activity in MCF-10A relative to Calu-3 (times less): ~2000 times
[2]; IC50 MCF-10A vs SKBR-3
  Activity in MCF-10A relative to SKBR-3 (times less): ~200 times
MCF-7 cells; MCF-7, compound 18 plus erlotinib
  Synergistic effect with erlotinib (isobologram): no synergistic effect
MCF-7 cells; breast cancer cells that do not overexpress HER2, 72 h
  IC50: > 50000 nM
[3]
  Competition with FITC-compound 5 (cell fluorescence): decrease in the fluorescence intensity of cells
[4]
  HER2:HER3 heterodimerization in tumor sections (PLA): diminished red fluorescence signals
[5]
  Inhibition of HER2:HER3 heterodimerization (PLA): inhibits heterodimerization in a concentration-dependent manner
[6]
  Inhibition of EGFR:HER2 heterodimerization (PLA): inhibits both EGFR:HER2 and HER2:HER3 dimerization
BT-474 breast tumors
  Tumor growth versus vehicle: delay in tumor growth and tumor size
[7]
  HER2 phosphorylation in tumor samples (Western blot): decrease in HER2 phosphorylation
Calu-3 cells
  IC50: 18 ± 13 nM
